Data published in BindingDB's records for doi:10.1021/acs.jmedchem.8b00629 (Ludwig-Maximilians-University Munich, 2018).

How the values were obtained:
[1] = Inhibition of mouse GAT3 expressed in HEK293 cells assessed as reduction in [3H]GABA uptake preincubated for 25 mins followed by [3H]GABA addition measured after 4 mins by liquid scintillation counting analysis
[2] = Inhibition of mouse GAT2 expressed in HEK293 cells assessed as reduction in [3H]GABA uptake preincubated for 25 mins followed by [3H]GABA addition measured after 4 mins by liquid scintillation counting analysis

| IC50 [1] [µM] | IC50 [2] [µM] | Structure (SMILES) |
| --- | --- | --- |
| > 100 | > 100 | O=C(O)[C@@H]1CCCN(CCC#Cc2cccc(/N=N/c3cccc4ccccc34)c2)C1 |
| > 100 | > 100 | O=C(O)[C@@H]1CCCN(CCC#Cc2ccc(/N=N/c3cccc4ccccc34)cc2)C1 |
| > 100 | > 100 | O=C(O)[C@@H]1CCCN(CCC#Cc2ccc(/N=N/c3ccccc3)cc2)C1 |
| > 100 | > 100 | O=C(O)[C@@H]1CCCN(CCC#Cc2cccc(/N=N/c3ccccc3)c2)C1 |
